Experimental data published in ChEMBL document CHEMBL1671792, “Conformationally constrained farnesoid X receptor (FXR) agonists: heteroaryl replacements of the naphthalene” (Bioorg Med Chem Lett, 2011).
Activity calls are given as the source filed them. The rule behind the calls is not given here.

What was measured:
Cytochrome P450 2C19 = Cytochrome P450 2C19 (Homo sapiens, UniProt P33261); assay: Inhibition of CYP2C19 in human liver microsome; type: microsomes
Mus musculus [1] = assay: Antidiabetic activity in diet-induced obese mouse assessed as serum glucose level at 10 mg/kg, po for 4 weeks (reference value: 316.5 +/-13.2 mg/dL); type: functional
[2] = Oral bioavailability in Beagle dog; type: ADME, organism-based, Canis lupus familiaris; details: in vivo
[3] = target: T1, Bile acid receptor (Homo sapiens) (UniProt Q96RI1); assay: Agonist activity at human FXR LBD iexpressed in monkey CV-1 cells assessed as transactivation of luciferase reporter gene expression relative to GW 4064; type: functional, cell-based; set-up: concentration or dose not given beside the values
T1 sequence (whole entry): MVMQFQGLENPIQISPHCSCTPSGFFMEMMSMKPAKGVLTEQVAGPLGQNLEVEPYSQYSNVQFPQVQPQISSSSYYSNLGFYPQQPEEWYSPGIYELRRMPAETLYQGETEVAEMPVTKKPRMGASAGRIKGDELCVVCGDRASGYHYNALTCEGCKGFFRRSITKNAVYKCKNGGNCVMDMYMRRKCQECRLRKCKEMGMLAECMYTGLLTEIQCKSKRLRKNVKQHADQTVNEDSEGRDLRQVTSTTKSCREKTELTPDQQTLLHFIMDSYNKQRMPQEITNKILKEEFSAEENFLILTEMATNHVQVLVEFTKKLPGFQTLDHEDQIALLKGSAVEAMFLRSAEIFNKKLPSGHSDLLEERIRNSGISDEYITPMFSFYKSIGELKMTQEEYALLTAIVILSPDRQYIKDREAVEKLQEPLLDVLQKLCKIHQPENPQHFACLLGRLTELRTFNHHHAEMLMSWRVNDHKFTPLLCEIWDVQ

Mus musculus [4] = assay: Antidiabetic activity in diet-induced obese mouse assessed as glycerol level at 100 mg/kg, po for 4 weeks (reference value: 11.0 +/-1.3 mg/dL); type: functional
Mus musculus [5] = assay: Antidiabetic activity in diet-induced obese mouse assessed as NEFA level at 30 mg/kg, po for 4 weeks (reference value: 0.46 +/-0.02 mEq/dL); type: functional
Homo sapiens [6] = species: Homo sapiens; assay: Selectivity ratio of EC50 for human FXR to EC50 for human LXRalpha
Mus musculus [7] = assay: Antidiabetic activity in diet-induced obese mouse assessed as change in body weight at 100 mg/kg, po for 4 weeks measured after 1 week (reference value: 29.1+/-0.8 g); type: functional
[8] = Oral bioavailability in cynomolgus monkey; type: ADME, organism-based, Macaca fascicularis; details: in vivo
Mus musculus [9] = assay: Antidiabetic activity in diet-induced obese mouse assessed as change in body weight at 100 mg/kg, po for 4 weeks measured after 2 weeks (reference value: 29.1+/-0.8 g); type: functional
Cynomolgus monkey = assay: Dose normalized AUC in orally dosed cynomolgus monkey; type: ADME, organism-based, Macaca fascicularis; details: in vivo, po
Mus musculus [10] = assay: Antidiabetic activity in diet-induced obese mouse assessed as beta-hydroxybutyrate level at 30 mg/kg, po for 4 weeks (reference value: 1.7 +/-0.1 mg/dL); type: functional
Mus musculus [11] = assay: Antidiabetic activity in diet-induced obese mouse assessed as change in body weight at 30 mg/kg, po for 4 weeks measured after 2 weeks (reference value: 29.6+/-0.9 g); type: functional
Mus musculus [12] = assay: Antidiabetic activity in diet-induced obese mouse assessed as serum insulin level at 10 mg/kg, po for 4 weeks (reference value: […]); type: functional
Mus musculus [13] = assay: Antidiabetic activity in diet-induced obese mouse assessed as triglyceride level at 100 mg/kg, po for 4 weeks (reference value: 54.4 +/-1.5 mg/dL); type: functional
[14] = target: T1, Bile acid receptor (Homo sapiens); assay: Binding affinity to human FXR by X-ray crystallography
Mus musculus [15] = assay: Antidiabetic activity in diet-induced obese mouse assessed as beta-hydroxybutyrate level at 100 mg/kg, po for 4 weeks (reference value: 1.7 +/-0.1 mg/dL); type: functional
[16] = Volume of distribution at steady state in iv dosed mouse; type: ADME, organism-based; details: in vivo, read-out: Vdss
Bile acid receptor = target: T2, Bile acid receptor (Homo sapiens, UniProt Q96RI1); assay: Agonist activity at human FXR LBD assessed as SRC1 peptide recruitment by FRET assay; type: functional
T2 sequence (Q96RI1 whole entry): T1 sequence (whole entry)

Mus musculus [17] = assay: Antidiabetic activity in diet-induced obese mouse assessed as change in body weight at 100 mg/kg, po for 4 weeks measured after 4 weeks (reference value: 29.1+/-0.8 g); type: functional
Homo sapiens [18] = species: Homo sapiens; assay: Selectivity ratio of EC50 for human FXR to EC50 for human LXRbeta
Mus musculus [19] = assay: Antidiabetic activity in diet-induced obese mouse assessed as change in body weight at 10 mg/kg, po for 4 weeks measured after 4 weeks (reference value: 30.3+/-0.8 g); type: functional
Mus musculus [20] = assay: Antidiabetic activity in diet-induced obese mouse assessed as total cholesterol level at 30 mg/kg, po for 4 weeks (reference value: 140.0 +/-2.8 mg/dL); type: functional
[21] = Half life in iv dosed Beagle dog; type: ADME, organism-based, Canis lupus familiaris; details: in vivo
[22] = Clearance in iv dosed Beagle dog; type: ADME, organism-based, Canis lupus familiaris; details: in vivo
Mus musculus [23] = assay: Antidiabetic activity in diet-induced obese mouse assessed as glycerol level at 30 mg/kg, po for 4 weeks (reference value: 11.0 +/-1.3 mg/dL); type: functional
Mus musculus [24] = assay: Antidiabetic activity in diet-induced obese mouse assessed as beta-hydroxybutyrate level at 10 mg/kg, po for 4 weeks (reference value: 1.7 +/-0.1 mg/dL); type: functional
Mus musculus [25] = assay: Antidiabetic activity in diet-induced obese mouse assessed as total cholesterol level at 10 mg/kg, po for 4 weeks (reference value: 140.0 +/-2.8 mg/dL); type: functional
Mus musculus [26] = assay: Antidiabetic activity in diet-induced obese mouse assessed as change in body weight at 30 mg/kg, po for 4 weeks measured after 4 weeks (reference value: 29.6+/-0.9 g); type: functional
[27] = Clearance in iv dosed cynomolgus monkey; type: ADME, organism-based, Macaca fascicularis; details: in vivo
Homo sapiens [28] = species: Homo sapiens; assay: Selectivity ratio of EC50 for human FXR to EC50 for human RORalpha
[29] = Volume of distribution at steady state in iv dosed Beagle dog; type: ADME, organism-based, Canis lupus familiaris; details: in vivo, read-out: Vdss
[30] = Volume of distribution at steady state in iv dosed cynomolgus monkey; type: ADME, organism-based, Macaca fascicularis; details: in vivo, read-out: Vdss
Homo sapiens [31] = species: Homo sapiens; assay: Selectivity ratio of EC50 for human FXR to EC50 for human PXR
Mus musculus [32] = assay: Dose normalized AUC in orally dosed mouse; type: ADME, organism-based; details: in vivo, po
[33] = Half life in iv dosed cynomolgus monkey; type: ADME, organism-based, Macaca fascicularis; details: in vivo
[34] = Clearance in iv dosed mouse; type: ADME, organism-based; details: in vivo
Homo sapiens [35] = species: Homo sapiens; assay: Selectivity ratio of EC50 for human FXR to EC50 for human PPARdelta
[36] = Oral bioavailability in rat; type: ADME, organism-based; details: in vivo
[37] = Half life in iv dosed mouse; type: ADME, organism-based; details: in vivo
Mus musculus [38] = assay: Antidiabetic activity in diet-induced obese mouse assessed as serum glucose level at 100 mg/kg, po for 4 weeks (reference value: 316.5 +/-13.2 mg/dL); type: functional
Cytochrome P450 2C9 = Cytochrome P450 2C9 (Homo sapiens, UniProt P11712); assay: Inhibition of CYP2C9 in human liver microsome; type: microsomes
Mus musculus [39] = assay: Antidiabetic activity in diet-induced obese mouse assessed as change in body weight at 10 mg/kg, po for 4 weeks measured after 2 weeks (reference value: 30.3+/-0.8 g); type: functional

Cytochrome P450 2C9, sequence (P11712 whole entry): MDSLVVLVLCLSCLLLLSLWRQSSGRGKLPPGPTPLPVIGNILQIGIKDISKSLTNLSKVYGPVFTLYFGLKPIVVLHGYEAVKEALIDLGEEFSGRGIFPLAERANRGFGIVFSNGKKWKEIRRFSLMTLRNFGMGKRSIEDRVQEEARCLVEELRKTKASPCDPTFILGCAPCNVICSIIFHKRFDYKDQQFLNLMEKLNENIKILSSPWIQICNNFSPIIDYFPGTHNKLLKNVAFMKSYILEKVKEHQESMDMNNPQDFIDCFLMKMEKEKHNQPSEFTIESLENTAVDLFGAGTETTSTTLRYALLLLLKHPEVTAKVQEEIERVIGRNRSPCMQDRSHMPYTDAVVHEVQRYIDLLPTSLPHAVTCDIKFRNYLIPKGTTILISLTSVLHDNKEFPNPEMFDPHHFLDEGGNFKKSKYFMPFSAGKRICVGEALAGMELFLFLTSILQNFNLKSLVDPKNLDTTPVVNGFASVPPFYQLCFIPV
Cytochrome P450 2C19, sequence (P33261 whole entry): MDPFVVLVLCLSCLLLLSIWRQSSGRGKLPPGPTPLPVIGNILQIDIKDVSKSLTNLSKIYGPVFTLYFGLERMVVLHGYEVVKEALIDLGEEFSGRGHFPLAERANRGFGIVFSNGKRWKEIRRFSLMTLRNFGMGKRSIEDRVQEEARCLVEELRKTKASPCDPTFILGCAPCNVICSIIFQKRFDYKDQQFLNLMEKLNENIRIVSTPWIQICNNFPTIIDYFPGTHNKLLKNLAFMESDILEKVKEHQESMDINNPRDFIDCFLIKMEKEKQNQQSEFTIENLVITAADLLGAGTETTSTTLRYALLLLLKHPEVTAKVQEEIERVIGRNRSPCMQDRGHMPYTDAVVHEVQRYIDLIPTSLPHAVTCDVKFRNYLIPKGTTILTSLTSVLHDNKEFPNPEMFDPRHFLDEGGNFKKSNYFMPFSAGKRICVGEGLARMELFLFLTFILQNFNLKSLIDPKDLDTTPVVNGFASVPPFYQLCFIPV

## CC(C)c1onc(-c2c(Cl)cccc2Cl)c1COc1ccc(-c2ccc3nc(C(=O)O)ccc3c2)cc1
Cytochrome P450 2C19
  IC50: > 33 µM
Mus musculus [1]
  Activity: 313 mg/dL
[2]
  bioavailability: 23%
[3]
  Activity: 102%
Mus musculus [4]
  Activity: 9.7 mg/dL
Mus musculus [5]
  Activity: 0.52 mEq/dL
Homo sapiens [6]
  Ratio EC50: 100
Mus musculus [7]
  Activity: 25.6 g
[8]
  bioavailability: 15%
Mus musculus [9]
  Activity: 23.2 g
Cynomolgus monkey
  AUC: 850 ng·kg·h/mg/mL
Mus musculus [10]
  Activity: 1.8 mg/dL
Mus musculus [11]
  Activity: 27.8 g
Mus musculus [12]
  Activity: 0.63 ng/mL
Mus musculus [13]
  Activity: 47.4 mg/dL
[14]
  Activity: Active
Mus musculus [15]
  Activity: 3.3 mg/dL
[16]
  Vd: 1.6 L/kg
Bile acid receptor
  EC50: 0.12 µM
Mus musculus [17]
  Activity: 25.6 g
Homo sapiens [18]
  Ratio EC50: 100
Mus musculus [19]
  Activity: 29 g
Mus musculus [20]
  Activity: 99.6 mg/dL
[21]
  half-life: 1.83 h
[22]
  clearance: 4.4 mL/min/kg
Mus musculus [23]
  Activity: 10 mg/dL
Mus musculus [24]
  Activity: 1.7 mg/dL
Mus musculus [25]
  Activity: 108.5 mg/dL
Mus musculus [26]
  Activity: 27.3 g
[27]
  clearance: 3.1 mL/min/kg
Homo sapiens [28]
  Ratio EC50: 100
[29]
  Vd: 0.31 L/kg
[30]
  Vd: 0.15 L/kg
Homo sapiens [31]
  Ratio EC50: 100
Mus musculus [32]
  AUC: 310 ng·kg·h/mg/mL
[33]
  half-life: 2 h
[34]
  clearance: 23 mL/min/kg
Homo sapiens [35]
  Ratio EC50: 100
[36]
  bioavailability: 23%
[37]
  half-life: 1.4 h
Mus musculus [38]
  Activity: 241.4 mg/dL
Cytochrome P450 2C9
  IC50: 4.4 µM
Mus musculus [39]
  Activity: 29.3 g
